Data: patent publication US9469642B2, “Purinone compounds as kinase inhibitors” (Pharmacyclics LLC, priority 2012, dated 2016)

Legend:
Type in all cases: biochemical
LCK = LCK (Homo sapiens, UniProt P06239); experiment: Kinase panel inhibition, LCK (one of the methods of Example 76a, 76b, 76c)
Procedure: (§1) Btk kinase activity is determined using a time-resolved fluorescence resonance energy transfer (TR-FRET) methodology. Measurements are performed in a reaction volume of 50 μL using 96-well assay plates. Kinase enzyme, inhibitor, ATP (at the Km for the kinase), and 1 peptide substrate (Biotin-AVLESEEELYSSARQ-NH2) are incubated in a reaction buffer composed of 20 mM Tris, 50 mM NaCl, MgCl2 (5-25 mM depending on the kinase), MnCl2 (0-10 mM), 1 mM DTT, 0.1 mM EDTA, 0.01% bovine serum albumin, 0.005% Tween-20, and 10% DMSO at pH 7.4 for one hour. The reaction is quenched by the addition of 1.2 equivalents of EDTA (relative to divalent cation) in 25 μL of 1× Lance buffer (Perkin-Elmer). Streptavidin-APC (Perkin-Elmer) and Eu-labeled p-Tyr100 antibody (Perkin-Elmer) in 1× Lance buffer are added in a 25 μL volume to give final concentrations of 100 nM and 2.5 nM, respectively, and the mixture is allowed to incubate for one hour. The TR-FRET signal is measured on a multimode plate reader with an excitation wavelength (λEx) of 330 nm and detection wavelengths (λEm) of 615 and 665 nm. Activity is determined by the ratio of the fluorescence at 665 nm to that at 615 nm. For each compound, enzyme activity is measured at various concentrations of compound. Negative control reactions are performed in the absence of inhibitor in replicates of six, and two no-enzyme controls are used to determine baseline fluorescence levels. Inhibition constants, Ki(app), were obtained using the program BatchKi (Kuzmic et al. (2000), Anal. Biochem. 286:45-50). IC50s are obtained according to the equation: IC50=[…]+[E]total/2;
(§2) For all kinases, [ATP]=Km^ATP, [Btk]total=0.5 nM and [Lck]total=6 nM.
(§3) Kinase activity is measured in vitro using electrophoretic mobility shift assay. The kinase reactions are assembled in a total volume of 25 μL in 384 well plates. The reactions comprise: BTK enzyme (1 nM, N-terminal His6-tagged, recombinant, full-length, human BTK purified from baculovirus Sf21 insect cell system), inhibitor, ATP (16 μM, the apparent Km for the kinase), fluorescently labeled peptide substrate (1 μM, FAM-GEEPLYWSFPAKKK-NH2) in a reaction buffer composed of 100 mM HEPES, pH7.5, 5 mM MgCl2 1 mM DTT, 0.1% bovine serum albumin, 0.01% Triton X-100, and 1% DMSO. The reaction is incubated for one hour and is quenched by the addition of 45 μL of termination buffer (100 mM HEPES, pH7.5, 0.01% Triton X-100, 30 mM EDTA). The terminated reactions are analyzed using 12 channel LabChip® 3000 microfluidic detection instrument (Caliper Life Sciences). The enzymatic phosphorylation of the peptide results in a change in net charge, enabling electrophoretic separation of product from substrate peptide. As substrate and product peptides are separated, two peaks of fluorescence are observed. Change in the relative fluorescence intensity of the substrate and product peaks is the parameter measured, reflecting enzyme activity. In the presence of an inhibitor, the ratio between product and substrate is altered:the signal of the product decreases, while the signal of the substrate increases.
(§4) Activity in each sample is determined as the product to sum ratio (PSR):P/(S+P), where P is the peak height of the product peptide and S is the peak height of the substrate peptide. For each compound, enzyme activity is measured at various concentrations (12 concentrations of compound spaced by 3× dilution intervals). Negative control samples (0%-inhibition in the absence of inhibitor) and positive control samples (100%-inhibition, in the presence of 20 mM EDTA) are assembled in replicates of four and are used to calculate %-inhibition values for each inhibitor at each concentration. Percent inhibition (Pinh) is determined using following equation: […]

BTK = molecular target: T1, BTK (Homo sapiens, UniProt Q06187); experiment: Btk in vitro inhibitory activity (kinase assay by one of Methods A, B or C)
T1 construct: purified from insect cells as a full-length construct containing a N-terminal 6×-His tag; His6 (N); host or cells: insect cells (baculovirus Sf21)
Procedure: as §1, §2, §3, §4

EGFR = EGFR (Homo sapiens, UniProt P00533); experiment: Kinase panel inhibition, EGFR (one of the methods of Example 76a, 76b, 76c)
Procedure: as §1, §2, §3, §4

LCK, sequence (P06239 whole entry, species assumed): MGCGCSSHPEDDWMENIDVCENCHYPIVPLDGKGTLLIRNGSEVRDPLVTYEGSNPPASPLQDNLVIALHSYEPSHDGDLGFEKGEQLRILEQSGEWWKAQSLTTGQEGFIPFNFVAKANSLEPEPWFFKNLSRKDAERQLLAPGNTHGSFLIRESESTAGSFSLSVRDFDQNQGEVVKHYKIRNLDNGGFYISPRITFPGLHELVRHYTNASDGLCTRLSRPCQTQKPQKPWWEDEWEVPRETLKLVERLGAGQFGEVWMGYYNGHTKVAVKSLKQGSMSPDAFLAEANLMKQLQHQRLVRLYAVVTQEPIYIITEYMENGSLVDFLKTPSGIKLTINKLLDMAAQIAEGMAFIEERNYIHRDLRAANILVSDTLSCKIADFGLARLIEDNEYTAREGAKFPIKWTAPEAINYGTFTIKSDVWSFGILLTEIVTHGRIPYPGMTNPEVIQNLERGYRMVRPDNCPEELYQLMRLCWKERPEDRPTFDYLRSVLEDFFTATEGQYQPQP
EGFR, sequence (P00533 25-1210, species assumed): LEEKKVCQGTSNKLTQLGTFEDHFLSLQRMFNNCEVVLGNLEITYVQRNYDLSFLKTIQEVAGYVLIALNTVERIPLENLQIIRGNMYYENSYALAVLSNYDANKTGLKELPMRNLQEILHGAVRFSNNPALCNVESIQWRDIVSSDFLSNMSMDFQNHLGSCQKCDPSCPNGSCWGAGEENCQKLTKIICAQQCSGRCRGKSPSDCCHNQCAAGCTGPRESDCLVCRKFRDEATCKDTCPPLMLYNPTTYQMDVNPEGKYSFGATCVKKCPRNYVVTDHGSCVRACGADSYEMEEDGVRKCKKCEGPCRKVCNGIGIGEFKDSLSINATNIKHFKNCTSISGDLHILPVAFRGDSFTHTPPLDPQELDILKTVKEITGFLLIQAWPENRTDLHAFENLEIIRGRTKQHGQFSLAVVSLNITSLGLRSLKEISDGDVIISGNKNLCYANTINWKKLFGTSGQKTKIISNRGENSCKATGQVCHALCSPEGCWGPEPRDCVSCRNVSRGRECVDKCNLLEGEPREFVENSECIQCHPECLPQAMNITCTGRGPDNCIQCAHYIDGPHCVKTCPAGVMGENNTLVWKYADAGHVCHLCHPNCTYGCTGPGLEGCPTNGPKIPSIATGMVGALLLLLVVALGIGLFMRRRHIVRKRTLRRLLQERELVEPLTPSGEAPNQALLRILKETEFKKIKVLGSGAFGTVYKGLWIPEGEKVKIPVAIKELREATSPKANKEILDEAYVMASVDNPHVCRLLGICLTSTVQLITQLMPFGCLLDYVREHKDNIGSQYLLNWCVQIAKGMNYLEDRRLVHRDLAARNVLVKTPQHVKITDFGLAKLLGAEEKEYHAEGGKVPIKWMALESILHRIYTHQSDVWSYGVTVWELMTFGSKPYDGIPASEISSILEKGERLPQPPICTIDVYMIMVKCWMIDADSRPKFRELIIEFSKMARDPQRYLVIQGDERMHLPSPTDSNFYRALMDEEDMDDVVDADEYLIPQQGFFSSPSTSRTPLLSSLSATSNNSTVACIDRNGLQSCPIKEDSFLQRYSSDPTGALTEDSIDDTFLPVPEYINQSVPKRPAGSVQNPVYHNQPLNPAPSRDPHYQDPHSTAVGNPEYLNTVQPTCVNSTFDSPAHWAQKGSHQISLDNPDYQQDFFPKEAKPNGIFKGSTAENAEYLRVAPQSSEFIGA
T1 sequence (Q06187 whole entry): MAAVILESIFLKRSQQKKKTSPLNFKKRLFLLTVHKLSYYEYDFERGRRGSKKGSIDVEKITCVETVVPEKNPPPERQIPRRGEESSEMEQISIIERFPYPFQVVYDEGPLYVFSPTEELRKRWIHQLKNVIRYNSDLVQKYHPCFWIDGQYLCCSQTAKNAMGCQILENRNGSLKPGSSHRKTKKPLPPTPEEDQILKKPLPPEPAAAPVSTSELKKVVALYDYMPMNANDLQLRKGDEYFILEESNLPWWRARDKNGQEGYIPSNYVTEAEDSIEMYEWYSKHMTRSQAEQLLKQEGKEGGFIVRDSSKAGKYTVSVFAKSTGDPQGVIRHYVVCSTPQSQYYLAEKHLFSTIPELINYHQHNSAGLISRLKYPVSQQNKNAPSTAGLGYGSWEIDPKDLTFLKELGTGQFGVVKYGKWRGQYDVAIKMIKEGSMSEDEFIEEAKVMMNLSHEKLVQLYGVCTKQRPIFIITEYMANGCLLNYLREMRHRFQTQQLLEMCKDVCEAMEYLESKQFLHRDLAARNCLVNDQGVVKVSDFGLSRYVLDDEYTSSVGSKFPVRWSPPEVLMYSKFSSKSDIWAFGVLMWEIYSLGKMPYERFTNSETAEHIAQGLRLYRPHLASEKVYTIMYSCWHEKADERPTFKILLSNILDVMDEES

SMILES | IC50 (LCK) [nM] | IC50 (BTK) [nM] | IC50 (EGFR) [nM]
CN(C/C=C/C(=O)N1CC[C@@H](n2c(=O)n(-c3ccc(Oc4ccccc4)cc3)c3c(N)ncnc32)C1)C1CC1 [Compound 63, (R,E)-6-amino-9-(1-(4-(cyclopropyl(methyl)amino)but-2-enoyl)pyrrolidin-3-yl)-7-(4-phenoxyphenyl)-7H-purin-8(9H)-one] | 100 to 1000 | < 100 | 1000 to 10000
CN(C)C/C=C/C(=O)N(C)c1ccc(-n2c(=O)n(-c3ccc(Cl)cc3)c3c(N)ncnc32)cc1 [Compound 48, (E)-N-(4-(6-amino-7-(4-chlorophenyl)-8-oxo-7H-purin-9(8H)-yl)phenyl)-4-(dimethylamino)-N-methylbut-2-enamide] | 1000 to 10000 | 100 to 1000 | > 10000
CN(C/C=C/C(=O)N1CCOc2ccc(-n3c(=O)n(-c4ccc(Oc5cccc(F)c5)cc4)c4c(N)ncnc43)cc21)C1CC1 [Compound 306, (E)-6-amino-9-(4-(4-(cyclopropyl(methyl)amino)but-2-enoyl)-3,4-dihydro-2H-benzo[b][1,4]oxazin-6-yl)-7-(4-(3-fluorophenoxy)phenyl)-7H-purin-8(9H)-one] | 1000 to 10000 | < 100 | 100 to 1000
C=CC(=O)N(C)c1cccc(-n2c(=O)n(-c3ccc(C)c(OC)c3)c3c(N)ncnc32)c1 [Compound 76, N-(3-(6-amino-7-(3-methoxy-4-methylphenyl)-8-oxo-7H-purin-9(8H)-yl)phenyl)-N-methylacrylamide] | – | < 100 | –
CN(C(=O)/C=C/CN)c1cccc(-n2c(=O)n(-c3ccc(Oc4ccccc4)cc3)c3c(N)ncnc32)c1 [Compound 326, (E)-4-amino-N-(3-(6-amino-8-oxo-7-(4-phenoxyphenyl)-7H-purin-9(8H)-yl)phenyl)-N-methylbut-2-enamide] | – | 100 to 1000 | –
COCCOc1ccc(-n2c(=O)n(-c3ccc(C)c(OC)c3)c3c(N)ncnc32)cc1N(C)C(=O)/C=C/CN(C)C [Compound 104, (E)-N-(5-(6-amino-7-(3-methoxy-4-methylphenyl)-8-oxo-7H-purin-9(8H)-yl)-2-(2-methoxyethoxy)phenyl)-4-(dimethylamino)-N-methylbut-2-enamide] | > 10000 | 100 to 1000 | > 10000
COc1ccc(N(C)C(=O)/C=C/CN(C)C2CC2)cc1-n1c(=O)n(-c2ccc(Oc3ccccc3)cc2)c2c(N)ncnc21 [Compound 181, (E)-N-(3-(6-amino-8-oxo-7-(4-phenoxyphenyl)-7H-purin-9(8H)-yl)-4-methoxyphenyl)-4-(cyclopropyl(methyl)amino)-N-methylbut-2-enamide] | – | 100 to 1000 | –
C=CC(=O)N1CCC[C@@H](n2c(=O)n(-c3ccc(Cl)cc3)c3c(N)ncnc32)C1 [Compound 90, (R)-9-(1-acryloylpiperidin-3-yl)-6-amino-7-(4-chlorophenyl)-7H-purin-8(9H)-one] | – | < 100 | –
CN(C(=O)/C=C/CN(C)C1CC1)c1cccc(-n2c(=O)n(-c3ccc(Oc4ccc(O)cc4)cc3)c3c(N)ncnc32)c1 [Compound 269, (E)-N-(3-(6-amino-7-(4-(4-hydroxyphenoxy)phenyl)-8-oxo-7H-purin-9(8H)-yl)phenyl)-4-(cyclopropyl(methyl)amino)-N-methylbut-2-enamide] | – | < 100 | –
C=CC(=O)N1CCC[C@@H](n2c(=O)n(-c3ccc(C)c(OC)c3)c3c(N)ncnc32)C1 [Compound 93, (R)-9-(1-acryloylpiperidin-3-yl)-6-amino-7-(3-methoxy-4-methylphenyl)-7H-purin-8(9H)-one] | – | < 100 | –
C=CC(=O)N1CC[C@@H](n2c(=O)n(-c3ccc(C)c(OC)c3)c3c(N)ncnc32)C1 [Compound 82, (R)-9-(1-acryloylpyrrolidin-3-yl)-6-amino-7-(3-methoxy-4-methylphenyl)-7H-purin-8(9H)-one] | – | < 100 | –
Nc1ncnc2c1n(-c1ccc(Oc3ccccc3)cc1)c(=O)n2-c1cccc(NC(=O)/C=C/CNC2CC2)c1 [Compound 116, (E)-N-(3-(6-amino-8-oxo-7-(4-phenoxyphenyl)-7H-purin-9(8H)-yl)phenyl)-4-(cyclopropylamino)but-2-enamide] | – | < 100 | –
CN(C(=O)/C=C/CN(C)C1CC1)c1cccc(-n2c(=O)n(-c3ccc(C(=O)Nc4ccccc4)cc3)c3c(N)ncnc32)c1 [Compound 280, (E)-4-(6-amino-9-(3-(4-(cyclopropyl(methyl)amino)-N-methylbut-2-enamido)phenyl)-8-oxo-8,9-dihydro-7H-purin-7-yl)-N-phenylbenzamide] | – | 100 to 1000 | –
C=CC(=O)N1CC[C@@H](n2c(=O)n(-c3ccc(Cl)cc3)c3c(N)ncnc32)C1 [Compound 78, (R)-9-(1-acryloylpyrrolidin-3-yl)-6-amino-7-(4-chlorophenyl)-7H-purin-8(9H)-one] | – | < 100 | –

More lines, now with the values ahead:

IC50 (LCK) [nM] | IC50 (BTK) [nM] | IC50 (EGFR) [nM] | SMILES
1000 to 10000 | < 100 | 1000 to 10000 | Cc1ccc(-n2c(=O)n(-c3ccc(Oc4ccccc4)cc3)c3c(N)ncnc32)cc1N(C)C(=O)/C=C/CN(C)C1CC1 [Compound 201, (E)-N-(5-(6-amino-8-oxo-7-(4-phenoxyphenyl)-7H-purin-9(8H)-yl)-2-methylphenyl)-4-(cyclopropyl(methyl)amino)-N-methylbut-2-enamide]
100 to 1000 | < 100 | 1000 to 10000 | CN(C(=O)/C=C/CN(C)C1CC1)c1ccc(-n2c(=O)n(-c3ccc(Oc4ccccc4)cc3)c3c(N)ncnc32)cc1 [Compound 44, (E)-N-(4-(6-amino-8-oxo-7-(4-phenoxyphenyl)-7H-purin-9(8H)-yl)phenyl)-4-(cyclopropyl(methyl)amino)-N-methylbut-2-enamide]
1000 to 10000 | < 100 | 1000 to 10000 | CN(C(=O)/C=C/CN(C)C1CC1)c1cccc(-n2c(=O)n(-c3ccc(Oc4cccc(F)c4)cc3)c3c(N)ncnc32)c1 [Compound 151, (E)-N-(3-(6-amino-7-(4-(3-fluorophenoxy)phenyl)-8-oxo-7H-purin-9(8H)-yl)phenyl)-4-(cyclopropyl(methyl)amino)-N-methylbut-2-enamide]
– | < 100 | – | CN(C(=O)/C=C/CN(C)C1CC1)c1cccc(-n2c(=O)n(-c3ccc(NC(=O)c4ccccc4)cc3)c3c(N)ncnc32)c1 [Compound 274, (E)-N-(4-(6-amino-9-(3-(4-(cyclopropyl(methyl)amino)-N-methylbut-2-enamido)phenyl)-8-oxo-8,9-dihydro-7H-purin-7-yl)phenyl)benzamide]
– | < 100 | – | CN(C(=O)/C=C/CN(C)C1CCC1)c1cccc(-n2c(=O)n(-c3ccc(Oc4ccccc4)cc3)c3c(N)ncnc32)c1 [Compound 35, (E)-N-(3-(6-amino-8-oxo-7-(4-phenoxyphenyl)-7H-purin-9(8H)-yl)phenyl)-4-(cyclobutyl(methyl)amino)-N-methylbut-2-enamide]
– | < 100 | – | COc1cc(NC(=O)/C=C/CN(C)C2CC2)cc(-n2c(=O)n(-c3ccc(Oc4ccccc4)cc3)c3c(N)ncnc32)c1 [Compound 263, (E)-N-(3-(6-amino-8-oxo-7-(4-phenoxyphenyl)-7H-purin-9(8H)-yl)-5-methoxyphenyl)-4-(cyclopropyl(methyl)amino)but-2-enamide]
– | < 100 | – | C=CC(=O)N(C)c1cccc(-n2c(=O)n(-c3ccc(Cl)cc3)c3c(N)ncnc32)c1 [Compound 77, N-(3-(6-amino-7-(4-chlorophenyl)-8-oxo-7H-purin-9(8H)-yl)phenyl)-N-methylacrylamide]
